Measured values taken from patent publication US6706663B2, “Herbicidal 3-heterocyclic substituted benzisothiazole and benzisoxazole compounds” (Wyeth, priority 2000, dated 2004).

Tests used:
[1] = tested on: ABUTH (Abutilon theophrasti); assay: Postemergence herbicidal evaluation; type: in vivo, Medic.
How it was run: (§1)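 Seedlings grown for about two weeks were sprayed postemergence and then kept under standard greenhouse care. Injury was rated visually 4–5 weeks after treatment on a 0–9 scale against untreated controls, and ratings from repeat tests were averaged.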

[2] = tested on: CYPSE (Cyperus serotinus); assay: Flooded paddy, preemergence weed control; type: in vivo, Rottb.; conditions: rated 3-4 weeks after treatment, 0-9 rating scale
How it was run: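 Seeds or propagules were planted 0.5 cm deep in silt loam and flooded to 1.5–3 cm. Compounds in 50/50 v/v aqueous/acetone were pipetted into the flood water at about 0.0080 to 0.1250 kg/ha. After 3–4 weeks in the greenhouse, effect was rated visually on a 0–9 scale versus untreated control.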

ZEAMX (Corn, Field) = assay: Postemergence herbicidal evaluation; type: in vivo, Zea mays, L.
How it was run: as §1

[3] = tested on: SAGPY (Sagittaria pygmaea); assay: Flooded paddy, preemergence weed control; type: in vivo, L.; conditions: rated 3-4 weeks after treatment, 0-9 rating scale
How it was run: (§2)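 Preemergence, flooded: propagules planted at 0.5 cm depth in silt loam, water level maintained at 1.5 to 3 cm over soil, containers kept on greenhouse benches. Activity scored 0-9 by eye relative to a control plant.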

[4] = tested on: ECHORC (Echinochloa oryzoides); assay: Flooded paddy, preemergence weed control; type: in vivo, Echinochloa oryzoides (Ard.) Fritsch.; conditions: rated 3-4 weeks after treatment, 0-9 rating scale
How it was run: as §2

[5] = tested on: TRZAWR (Wheat, Winter, cv Riband); assay: Preemergence herbicidal evaluation; type: in vivo, Triticum aestivum; conditions: preemergence, rated 4-5 weeks after treatment
How it was run: (§3)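 Greenhouse preemergence test: freshly planted cups were sprayed once with an aqueous acetone solution of compound. Injury was judged visually on a 0–9 scale relative to a control, four to five weeks later.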

ORYSAT (Rice, Tebonnet) [6] = assay: Postemergence herbicidal evaluation; type: in vivo, Oryza sativa, (L.) Tebonnet
How it was run: as §1

[7] = tested on: IPOHE (Ipomoea hederacea); assay: Postemergence herbicidal evaluation; type: in vivo, (L.) Jacq.
How it was run: as §1

ORYSAT (Rice, Tebonnet) [8] = assay: Flooded paddy, post-transplant rice tolerance; type: in vivo, Oryza sativa, (L.) Tebonnet; conditions: flooded paddy, post-transplant rice, rated 3-4 weeks after treatment, 0-9 rating scale
How it was run: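 Two ten-day-old Tebonnet rice seedlings transplanted into silt loam, then flooded with water held at 1.5–3 cm above soil; herbicide applied post-transplant. Plants kept in greenhouse and rated visually 0–9 versus untreated control for stand, vigor, malformation, size and chlorosis.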

[9] = tested on: ECHCG (Echinochloa crus-galli); assay: Postemergence herbicidal evaluation; type: in vivo, (L.) Beau
How it was run: as §1

[10] = tested on: ABUTH (Abutilon theophrasti); assay: Preemergence herbicidal evaluation; type: in vivo, Medic.; conditions: preemergence, rated 4-5 weeks after treatment
[11] = tested on: TRZAWR (Wheat, Winter, cv Riband); assay: Postemergence herbicidal evaluation; type: in vivo, Triticum aestivum
How it was run: as §1

[12] = tested on: CASOB (Cassia obtusifolia); assay: Postemergence herbicidal evaluation; type: in vivo, L.
How it was run: as §1

[13] = tested on: AMBEL (Ambrosia artemisifolia); assay: Postemergence herbicidal evaluation; type: in vivo, L.
How it was run: as §1

[14] = tested on: CHEAL (Chenopodium album); assay: Postemergence herbicidal evaluation; type: in vivo, L.
How it was run: as §1

[15] = tested on: CASOB (Cassia obtusifolia); assay: Preemergence herbicidal evaluation; type: in vivo, L.; conditions: preemergence, rated 4-5 weeks after treatment
How it was run: as §3

[16] = tested on: AMBEL (Ambrosia artemisifolia); assay: Preemergence herbicidal evaluation; type: in vivo, L.; conditions: preemergence, rated 4-5 weeks after treatment
How it was run: as §3

[17] = tested on: CHEAL (Chenopodium album); assay: Preemergence herbicidal evaluation; type: in vivo, L.; conditions: preemergence, rated 4-5 weeks after treatment
How it was run: as §3

ORYSAT (Rice, Tebonnet) [18] = assay: Preemergence herbicidal evaluation; type: in vivo, Oryza sativa, (L.) Tebonnet; conditions: preemergence, rated 4-5 weeks after treatment

Question: With CN(C(=O)c1nsc2ccc(-n3c(=O)cc(C(F)(F)F)n(C)c3=O)cc12)c1ccc(Cl)cc1 [Compound 18, 1,2-benzisothiazole-3-carboxanilide, 4′-chloro-5-[3,6-dihydro-3-methyl-2,6-dioxo-4-(trifluoromethyl)-1(2H)-pyrimidinyl]-N-methyl-] as the compound, how does the “Postemergence herbicidal rating, ABUTH” value ([1]; rate 0.0320 kg/ha) read?
Answer: The value was 9.0.

Question: And the “Postemergence herbicidal rating, ABUTH” value ([1]; rate 0.0620 kg/ha)?
Answer: Its value is 9.0.

Question: What about the “Postemergence herbicidal rating, ABUTH” value ([1]; rate 0.1250 kg/ha) of the same compound?
Answer: Its value is 9.0.

Question: What about the “Postemergence herbicidal rating, ABUTH” value ([1]; rate 0.2500 kg/ha) of the same compound?
Answer: Its value is 9.0.

Question: And the “herbicidal rating, CYPSE” value ([2]; rate 0.0320 kg/ha)?
Answer: The value was 4.0.

Question: And the “herbicidal rating, CYPSE” value ([2]; rate 0.1250 kg/ha)?
Answer: The value was 4.0.

Question: And the “Postemergence herbicidal rating, ZEAMX” value (ZEAMX (Corn, Field); rate 0.0320 kg/ha)?
Answer: The value was 5.0.

Question: What about the “Postemergence herbicidal rating, ZEAMX” value (ZEAMX (Corn, Field); rate 0.0620 kg/ha) of the same compound?
Answer: Its value is 5.0.

Question: And the “Postemergence herbicidal rating, ZEAMX” value (ZEAMX (Corn, Field); rate 0.1250 kg/ha)?
Answer: Its value is 5.5.

Question: And the “Postemergence herbicidal rating, ZEAMX” value (ZEAMX (Corn, Field); rate 0.2500 kg/ha)?
Answer: Its value is 7.0.

Question: And the “herbicidal rating, SAGPY” value ([3]; rate 0.0080 kg/ha)?
Answer: The value was 0.0.

Question: And the “herbicidal rating, SAGPY” value ([3]; rate 0.0320 kg/ha)?
Answer: The value was 1.5.

Question: What about the “herbicidal rating, SAGPY” value ([3]; rate 0.1250 kg/ha) of the same compound?
Answer: The value was 5.0.

Question: And the “herbicidal rating, ECHORC” value ([4]; rate 0.0080 kg/ha)?
Answer: Its value is 0.0.

Question: And the “herbicidal rating, ECHORC” value ([4]; rate 0.0320 kg/ha)?
Answer: Its value is 6.0.

Question: What about the “herbicidal rating, ECHORC” value ([4]; rate 0.1250 kg/ha) of the same compound?
Answer: Its value is 9.0.

Question: What about the “TRZAWR preemergence herbicidal rating” value ([5]; Rate 0.0620 kg/ha) of the same compound?
Answer: Its value is 0.0.

Question: And the “TRZAWR preemergence herbicidal rating” value ([5]; Rate 0.1250 kg/ha)?
Answer: Its value is 4.0.

Question: And the “TRZAWR preemergence herbicidal rating” value ([5]; Rate 0.2500 kg/ha)?
Answer: Its value is 8.0.

Question: And the “Postemergence herbicidal rating, ORYSAT” value (ORYSAT (Rice, Tebonnet) [6]; rate 0.0320 kg/ha)?
Answer: Its value is 2.0.

Question: What about the “Postemergence herbicidal rating, ORYSAT” value (ORYSAT (Rice, Tebonnet) [6]; rate 0.0620 kg/ha) of the same compound?
Answer: Its value is 3.0.

Question: What about the “Postemergence herbicidal rating, ORYSAT” value (ORYSAT (Rice, Tebonnet) [6]; rate 0.1250 kg/ha) of the same compound?
Answer: Its value is 5.0.

Question: What about the “Postemergence herbicidal rating, ORYSAT” value (ORYSAT (Rice, Tebonnet) [6]; rate 0.2500 kg/ha) of the same compound?
Answer: The value was 5.5.

Question: What about the “Postemergence herbicidal rating, IPOHE” value ([7]; rate 0.0320 kg/ha) of the same compound?
Answer: Its value is 9.0.

Question: What about the “Postemergence herbicidal rating, IPOHE” value ([7]; rate 0.0620 kg/ha) of the same compound?
Answer: Its value is 9.0.

Question: And the “Postemergence herbicidal rating, IPOHE” value ([7]; rate 0.1250 kg/ha)?
Answer: Its value is 9.0.

Question: And the “Postemergence herbicidal rating, IPOHE” value ([7]; rate 0.2500 kg/ha)?
Answer: Its value is 9.0.

Question: And the “herbicidal rating, ORYSAT (rice tolerance)” value (ORYSAT (Rice, Tebonnet) [8]; rate 0.0080 kg/ha)?
Answer: The value was 0.0.

Question: And the “herbicidal rating, ORYSAT (rice tolerance)” value (ORYSAT (Rice, Tebonnet) [8]; rate 0.0320 kg/ha)?
Answer: The value was 1.5.

Question: And the “herbicidal rating, ORYSAT (rice tolerance)” value (ORYSAT (Rice, Tebonnet) [8]; rate 0.1250 kg/ha)?
Answer: The value was 5.0.

Question: What about the “Postemergence herbicidal rating, ECHCG” value ([9]; rate 0.0320 kg/ha) of the same compound?
Answer: The value was 0.0.

Question: What about the “Postemergence herbicidal rating, ECHCG” value ([9]; rate 0.0620 kg/ha) of the same compound?
Answer: The value was 0.0.

Question: And the “Postemergence herbicidal rating, ECHCG” value ([9]; rate 0.1250 kg/ha)?
Answer: Its value is 0.0.

Question: And the “Postemergence herbicidal rating, ECHCG” value ([9]; rate 0.2500 kg/ha)?
Answer: The value was 5.0.

Question: And the “ABUTH preemergence herbicidal rating” value ([10]; Rate 0.0620 kg/ha)?
Answer: The value was 9.0.

Question: And the “ABUTH preemergence herbicidal rating” value ([10]; Rate 0.1250 kg/ha)?
Answer: Its value is 9.0.

Question: And the “ABUTH preemergence herbicidal rating” value ([10]; Rate 0.2500 kg/ha)?
Answer: Its value is 9.0.

Question: And the “Postemergence herbicidal rating, TRZAWR” value ([11]; rate 0.0320 kg/ha)?
Answer: Its value is 3.0.

Question: And the “Postemergence herbicidal rating, TRZAWR” value ([11]; rate 0.0620 kg/ha)?
Answer: The value was 4.0.

Question: And the “Postemergence herbicidal rating, TRZAWR” value ([11]; rate 0.1250 kg/ha)?
Answer: Its value is 5.0.

Question: What about the “Postemergence herbicidal rating, TRZAWR” value ([11]; rate 0.2500 kg/ha) of the same compound?
Answer: Its value is 6.0.

Question: What about the “Postemergence herbicidal rating, CASOB” value ([12]; rate 0.0320 kg/ha) of the same compound?
Answer: Its value is 0.0.

Question: What about the “Postemergence herbicidal rating, CASOB” value ([12]; rate 0.0620 kg/ha) of the same compound?
Answer: Its value is 1.0.

Question: And the “Postemergence herbicidal rating, CASOB” value ([12]; rate 0.1250 kg/ha)?
Answer: Its value is 2.0.

Question: And the “Postemergence herbicidal rating, CASOB” value ([12]; rate 0.2500 kg/ha)?
Answer: Its value is 6.0.

Question: What about the “Postemergence herbicidal rating, AMBEL” value ([13]; rate 0.0320 kg/ha) of the same compound?
Answer: The value was 2.0.

Question: What about the “Postemergence herbicidal rating, AMBEL” value ([13]; rate 0.0620 kg/ha) of the same compound?
Answer: The value was 9.0.

Question: And the “Postemergence herbicidal rating, AMBEL” value ([13]; rate 0.1250 kg/ha)?
Answer: Its value is 9.0.

Question: What about the “Postemergence herbicidal rating, AMBEL” value ([13]; rate 0.2500 kg/ha) of the same compound?
Answer: Its value is 9.0.

Question: What about the “Postemergence herbicidal rating, CHEAL” value ([14]; rate 0.0320 kg/ha) of the same compound?
Answer: Its value is 7.0.

Question: And the “Postemergence herbicidal rating, CHEAL” value ([14]; rate 0.0620 kg/ha)?
Answer: Its value is 7.0.

Question: And the “Postemergence herbicidal rating, CHEAL” value ([14]; rate 0.1250 kg/ha)?
Answer: Its value is 7.0.

Question: And the “Postemergence herbicidal rating, CHEAL” value ([14]; rate 0.2500 kg/ha)?
Answer: The value was 9.0.

Question: What about the “CASOB preemergence herbicidal rating” value ([15]; Rate 0.0620 kg/ha) of the same compound?
Answer: Its value is 0.0.

Question: What about the “CASOB preemergence herbicidal rating” value ([15]; Rate 0.1250 kg/ha) of the same compound?
Answer: Its value is 1.0.

Question: What about the “CASOB preemergence herbicidal rating” value ([15]; Rate 0.2500 kg/ha) of the same compound?
Answer: The value was 1.0.

Question: And the “AMBEL preemergence herbicidal rating” value ([16]; Rate 0.0620 kg/ha)?
Answer: Its value is 7.0.

Question: And the “AMBEL preemergence herbicidal rating” value ([16]; Rate 0.1250 kg/ha)?
Answer: The value was 9.0.

Question: And the “AMBEL preemergence herbicidal rating” value ([16]; Rate 0.2500 kg/ha)?
Answer: The value was 9.0.

Question: And the “CHEAL preemergence herbicidal rating” value ([17]; Rate 0.0620 kg/ha)?
Answer: The value was 9.0.

Question: And the “CHEAL preemergence herbicidal rating” value ([17]; Rate 0.1250 kg/ha)?
Answer: The value was 9.0.

Question: What about the “CHEAL preemergence herbicidal rating” value ([17]; Rate 0.2500 kg/ha) of the same compound?
Answer: Its value is 9.0.

Question: What about the “ORYSAT preemergence herbicidal rating” value (ORYSAT (Rice, Tebonnet) [18]; Rate 0.0620 kg/ha) of the same compound?
Answer: Its value is 0.0.

Question: What about the “ORYSAT preemergence herbicidal rating” value (ORYSAT (Rice, Tebonnet) [18]; Rate 0.1250 kg/ha) of the same compound?
Answer: The value was 5.0.

Question: And the “ORYSAT preemergence herbicidal rating” value (ORYSAT (Rice, Tebonnet) [18]; Rate 0.2500 kg/ha)?
Answer: Its value is 8.0.
